Test results reported in ChEMBL document CHEMBL5154704 (Bioorg Med Chem, 2022).
pEC50: −log10 of the molar value.

Assays:
[1] = molecular target: Free fatty acid receptor 1 (Homo sapiens, UniProt O14842); experiment: Agonist activity at human FFA1 expressed in CHO cells assessed as increase in calcium level measured by Fluo-4-AM staining based FLIPR assay; assay type: functional, cell-based
[2] = Toxicity in ICR mouse at 500 mg/kg, ig measured after 7 days; assay type: organism-based; settings: in vivo, po, 168 h, time 7 day

Free fatty acid receptor 1, sequence (O14842 whole entry): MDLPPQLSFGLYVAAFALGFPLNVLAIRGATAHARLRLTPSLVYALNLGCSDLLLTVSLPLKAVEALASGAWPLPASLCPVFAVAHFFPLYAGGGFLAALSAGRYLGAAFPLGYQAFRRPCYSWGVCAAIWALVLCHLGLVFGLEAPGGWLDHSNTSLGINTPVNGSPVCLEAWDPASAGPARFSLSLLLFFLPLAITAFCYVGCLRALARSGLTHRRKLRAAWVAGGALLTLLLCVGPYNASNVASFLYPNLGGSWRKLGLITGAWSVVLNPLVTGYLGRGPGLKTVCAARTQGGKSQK

Row | Structure (SMILES) | pEC50 [1] | Activity [2]
1 | Cc1cc(OCCCS(C)(=O)=O)ccc1-c1cccc(COc2ccc(OCC(=O)O)c(F)c2)c1 | 7.21 | –
2 | COc1ccc2cc(-c3cccc(COc4ccc(OCC(=O)O)c(F)c4)c3)ccc2c1 | – | Non-Toxic
